According to ChEMBL document CHEMBL4219032, “Triple Reuptake Inhibitors as Potential Therapeutics for Depression and Other Disorders: Design Paradigm and Developmental Challenges” (J Med Chem, 2018):

Columns and labels:
Rattus norvegicus [1] = assay: In vivo receptor occupancy at NET in ip dosed rat brain measured 60 mins post dose; assay type: functional; conditions: 1 h
Rattus norvegicus [2] = assay: In vivo receptor occupancy at DAT in ip dosed rat brain measured 60 mins post dose; assay type: functional; conditions: 1 h
Rattus norvegicus [3] = assay: In vivo receptor occupancy at SERT in ip dosed rat brain measured 60 mins post dose; assay type: functional; conditions: 1 h
[4] = molecular target: T1, Sodium-dependent serotonin transporter (Homo sapiens, UniProt P31645); assay: biochemical; assay type: cell-based, HEK293
Description: Binding affinity to human SERT expressed in HEK293 cells after 60 mins in presence of [3H]imipramine by liquid scintillation counting

[5] = molecular target: T2, Sodium-dependent noradrenaline transporter (Homo sapiens, UniProt P23975); assay: Binding affinity to human NET expressed in HEK293 cells after 60 mins in presence of [3H]imipramine by liquid scintillation counting; assay type: cell-based
[6] = molecular target: T3, Sodium-dependent dopamine transporter (Homo sapiens, UniProt Q01959); assay: Binding affinity to human DAT expressed in HEK293 cells after 60 mins in presence of […] by liquid scintillation counting; assay type: cell-based
[7] = molecular target: T1, Sodium-dependent serotonin transporter; assay: Binding affinity to human SERT
[8] = molecular target: T3, Sodium-dependent dopamine transporter; assay: Binding affinity to human DAT
[9] = molecular target: T2, Sodium-dependent noradrenaline transporter; assay: Binding affinity to human NET
[10] = molecular target: T3, Sodium-dependent dopamine transporter; assay: Inhibition of DAT (unknown origin)-mediated uptake
[11] = molecular target: T1, Sodium-dependent serotonin transporter; assay: Inhibition of SERT (unknown origin)-mediated uptake
[12] = Half life in human brain; assay type: ADME, tissue-based
Homo sapiens = assay: In vivo receptor occupancy at DAT in iv dosed human measured up to 15 mins by PET analysis; assay type: functional
[13] = molecular target: T3, Sodium-dependent dopamine transporter
Description: Binding affinity to DAT (unknown origin)

[14] = molecular target: T2, Sodium-dependent noradrenaline transporter
Description: Binding affinity to NET (unknown origin)

[15] = molecular target: T1, Sodium-dependent serotonin transporter
Description: Binding affinity to SERT (unknown origin)

T2 sequence (P23975 whole entry): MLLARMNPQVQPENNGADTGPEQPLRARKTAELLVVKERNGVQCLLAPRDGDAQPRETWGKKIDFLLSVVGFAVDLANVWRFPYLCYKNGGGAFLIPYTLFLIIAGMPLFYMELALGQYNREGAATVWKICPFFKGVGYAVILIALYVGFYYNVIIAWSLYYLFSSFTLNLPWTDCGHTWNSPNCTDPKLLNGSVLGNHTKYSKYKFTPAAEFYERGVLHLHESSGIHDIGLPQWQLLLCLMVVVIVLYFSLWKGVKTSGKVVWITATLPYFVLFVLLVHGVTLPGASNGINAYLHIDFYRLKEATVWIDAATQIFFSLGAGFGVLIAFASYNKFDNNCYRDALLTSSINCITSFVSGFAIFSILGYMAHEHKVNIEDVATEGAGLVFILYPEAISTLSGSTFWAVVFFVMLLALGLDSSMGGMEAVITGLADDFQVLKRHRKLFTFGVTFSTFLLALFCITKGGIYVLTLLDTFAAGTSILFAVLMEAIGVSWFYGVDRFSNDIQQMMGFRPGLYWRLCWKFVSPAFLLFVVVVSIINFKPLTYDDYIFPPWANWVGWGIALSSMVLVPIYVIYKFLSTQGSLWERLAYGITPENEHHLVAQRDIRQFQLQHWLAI
T1 sequence (P31645 whole entry): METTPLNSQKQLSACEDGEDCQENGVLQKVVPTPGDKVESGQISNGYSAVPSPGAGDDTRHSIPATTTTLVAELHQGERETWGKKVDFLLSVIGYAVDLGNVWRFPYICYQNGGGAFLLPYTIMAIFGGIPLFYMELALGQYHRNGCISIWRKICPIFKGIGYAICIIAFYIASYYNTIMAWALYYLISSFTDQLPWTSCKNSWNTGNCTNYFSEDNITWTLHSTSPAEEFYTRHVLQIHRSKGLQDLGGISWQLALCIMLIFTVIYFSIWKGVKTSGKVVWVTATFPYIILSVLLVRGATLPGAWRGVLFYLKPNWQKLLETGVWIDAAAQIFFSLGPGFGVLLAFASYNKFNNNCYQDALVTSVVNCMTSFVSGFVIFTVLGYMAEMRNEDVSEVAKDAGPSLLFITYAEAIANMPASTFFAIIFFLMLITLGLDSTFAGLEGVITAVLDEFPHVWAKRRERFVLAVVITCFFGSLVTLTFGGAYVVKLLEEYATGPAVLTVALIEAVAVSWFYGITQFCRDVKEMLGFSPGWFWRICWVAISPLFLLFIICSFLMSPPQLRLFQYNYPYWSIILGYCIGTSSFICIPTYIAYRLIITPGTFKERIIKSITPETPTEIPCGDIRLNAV
T3 sequence (Q01959 whole entry): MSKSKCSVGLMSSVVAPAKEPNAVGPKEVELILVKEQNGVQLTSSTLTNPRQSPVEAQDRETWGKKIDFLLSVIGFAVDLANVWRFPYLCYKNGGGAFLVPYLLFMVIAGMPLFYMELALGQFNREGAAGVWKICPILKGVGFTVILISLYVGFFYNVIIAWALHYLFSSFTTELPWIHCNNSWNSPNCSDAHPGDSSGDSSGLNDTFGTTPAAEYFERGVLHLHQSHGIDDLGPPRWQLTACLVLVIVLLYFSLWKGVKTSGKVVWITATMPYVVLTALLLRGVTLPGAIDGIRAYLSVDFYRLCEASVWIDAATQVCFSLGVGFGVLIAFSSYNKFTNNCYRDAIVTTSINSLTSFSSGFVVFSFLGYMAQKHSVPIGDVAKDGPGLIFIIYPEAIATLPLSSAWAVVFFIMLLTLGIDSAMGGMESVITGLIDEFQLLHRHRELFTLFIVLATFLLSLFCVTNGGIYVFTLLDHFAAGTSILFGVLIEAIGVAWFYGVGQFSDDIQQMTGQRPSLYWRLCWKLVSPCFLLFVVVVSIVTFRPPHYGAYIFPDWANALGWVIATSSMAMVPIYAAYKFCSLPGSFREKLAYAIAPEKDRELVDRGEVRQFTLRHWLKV

Clc1ccc([C@]23CNCC2C3)cc1Cl (stereo partly drawn)
ED50 (Rattus norvegicus [1]): 2 mg/kg | ED50 (Rattus norvegicus [2]): 49 mg/kg | ED50 (Rattus norvegicus [3]): 0.5 mg/kg

CN(C)C[C@H](c1ccc2ccccc2c1)[C@H](O)C1CCCCC1 (racemic)
Ki [4]: 6 nM | Ki [5]: 10 nM | Ki [6]: 53 nM

Clc1ccc([C@@H]2CCN[C@@H]3CCOC[C@@H]32)cc1Cl
Ki [7]: 31.6 nM | Ki [8]: 39.8 nM | Ki [9]: 50.1 nM

CNC[C@H](c1ccc2ccccc2c1)[C@H](O)c1ccccc1
Ki [4]: 2.1 nM | Ki [5]: 1.5 nM | Ki [6]: 61 nM

Clc1ccc([C@@H]2CCNC[C@@]23CCOC3)cc1Cl
Ki [7]: 5.01 nM | Ki [8]: 39.8 nM | Ki [9]: 79.4 nM

C[C@]1(O)CC[C@](CN)(c2ccc(Cl)c(Cl)c2)CC1
IC50 [10]: 518 nM | IC50 [11]: 1190 nM

COC(=O)[C@H]1[C@@H](OC(=O)c2ccccc2)C[C@@H]2CC[C@H]1N2C [COCAINE]
half-life [12]: 20 min

COC(=O)[C@H](c1ccccc1)[C@H]1CCCCN1 (racemic) [DEXMETHYLPHENIDATE]
Occ (Homo sapiens): 60% | half-life [12]: 90 min

Cc1cc2cc(OC3C[C@H]4CC[C@@H](C3)N4)ccc2oc1=O (stereo partly drawn)
IC50 [13]: 150 nM | IC50 [14]: 10 nM | IC50 [15]: 0.72 nM

COC[C@@H]1CN[C@H]2CC[C@]1(c1ccc(Cl)c(Cl)c1)C2
Ki [7]: 2.09 nM | Ki [8]: 5.75 nM | Ki [9]: 1.41 nM

Clc1ccc(C2CCNCC23CCOCC3)cc1Cl (stereo in doubt; 172)
Ki [7]: 0.316 nM | Ki [8]: 12.6 nM | Ki [9]: 3.98 nM

COC[C@@H]1CN[C@@H]2CC[C@@]1(c1ccc(Cl)c(Cl)c1)C2
Ki [7]: 31.6 nM | Ki [8]: 79.4 nM | Ki [9]: 6.31 nM

COC[C@H]1CN[C@@H]2CC[C@@]1(c1ccc(Cl)c(Cl)c1)C2
Ki [7]: 10 nM | Ki [8]: 5.01 nM | Ki [9]: 3.16 nM

C[C@]1(O)CC[C@@](CN)(c2ccc(Cl)c(Cl)c2)CC1
IC50 [10]: 2600 nM | IC50 [11]: > 10000 nM

COC[C@@]12CNCC[C@]1(c1ccc(Cl)c(Cl)c1)C2 [GSK1360707]
IC50 [13]: 8 nM | IC50 [14]: 8.1 nM | IC50 [15]: 9.2 nM

CNC[C@H](c1ccc2ccccc2c1)[C@H](O)c1ccccc1 (racemic)
Ki [4]: 12 nM | Ki [5]: 1.2 nM | Ki [6]: 43 nM

Clc1ccc(C2CCNCC23CCOCC3)cc1Cl (stereo in doubt; 171)
Ki [7]: 1.26 nM | Ki [8]: 31.6 nM | Ki [9]: 63.1 nM

CC(NC(C)(C)C)C(=O)c1cccc(Cl)c1 (stereo not drawn) [BUPROPION]
Occ (Homo sapiens): <30%

COC[C@H]1CN[C@H]2CC[C@]1(c1ccc(Cl)c(Cl)c1)C2
Ki [7]: 1.26 nM | Ki [8]: 1.51 nM | Ki [9]: 0.0794 nM

CN1Cc2c(N)cccc2C(c2ccc(Cl)c(Cl)c2)C1 (stereo not drawn)
Ki [13]: 10.9 nM | Ki [14]: 8.8 nM | Ki [15]: 10.3 nM

CN(C)C[C@]1(c2ccc3ccccc3c2)CC[C@](C)(O)CC1
IC50 [10]: 167 nM | IC50 [11]: 7 nM

Clc1ccc(C2CCNCC23COC3)cc1Cl (stereo not drawn)
Ki [7]: 63.1 nM | Ki [8]: 158 nM | Ki [9]: 158 nM

CNC[C@@H](c1ccc2ccccc2c1)[C@@H](O)c1ccccc1
Kd [4]: 210 nM | Kd [5]: 42 nM | Kd [6]: 200 nM

C#Cc1ccc([C@@H]2CN3CCC[C@@H]3c3ccccc32)cc1
Ki [13]: 1.6 nM | Ki [14]: 4.1 nM | Ki [15]: 0.27 nM

C#Cc1ccc([C@H]2CN3CCC[C@H]3c3ccccc32)cc1
Ki [13]: 74.3 nM | Ki [14]: 227 nM | Ki [15]: 15.8 nM

Cc1ccc(C23CNCC2C3)cc1 (stereo not drawn) [BICIFADINE]
IC50 [13]: 910 nM | IC50 [14]: 55 nM | IC50 [15]: 117 nM

Clc1ccc(C2CCNCC23CCOCC3)cc1Cl (racemic)
Ki [7]: 0.631 nM | Ki [8]: 20 nM | Ki [9]: 10 nM
